The results in this text go back to patent US6855730B2, “3-methylidenyl-2-indolinone modulators of protein kinase” (Sugen, Inc., priority 1998, dated 2005).

One may read the pIC50 as −log10 of the IC50, conventionally taken in molar units.

Common to all, as to format: cell-based
The subject of one test is SKOV3 cells. Nature of the test: SKOV3 growth assay (2% FBS). To be noted: Homo sapiens, SK-OV-3, read-out: SKOV3 growth (2% FBS) IC50.
In the next test the test system is A431 cells. As to the kind of experiment: A431 growth assay (2% FBS). Conditions: Homo sapiens, A-431, read-out: A431 growth (2% FBS) IC50.
Test [1] concerns the target T1, chimeric receptor containing the EGFR extracellular domain and intracellular HER2 kinase domain (Homo sapiens, UniProt P04626).
T1 construct: fused on or other part: EGFR ectodomain + HER2 intracellular part, ATP-site indolinones: HER2's kinase
As to the kind of experiment: EGF Receptor-HER2 chimeric receptor assay in whole cells (ELISA). To be noted: read-out: HER-2 kinase IC50. The method in brief: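 NIH3T3 cells overexpressing EGFR-extracellular/HER2-kinase chimera, seeded in 0.5% serum for ~40 h, were pretreated with compound (1% final DMSO) 2 h at 37 °C, then stimulated with 100 nM EGF for 5 min. Lysates captured on anti-EGFR plates; phosphotyrosine detected by anti-Ptyr/HRP ELISA at 410 nm as percent inhibition.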
Background: An ELISA detects its analyte on a solid surface through an enzyme-linked reagent.

pIC50: −log10 of the molar value.

T1 sequence (P04626 720-1255 limits assumed, change not shown): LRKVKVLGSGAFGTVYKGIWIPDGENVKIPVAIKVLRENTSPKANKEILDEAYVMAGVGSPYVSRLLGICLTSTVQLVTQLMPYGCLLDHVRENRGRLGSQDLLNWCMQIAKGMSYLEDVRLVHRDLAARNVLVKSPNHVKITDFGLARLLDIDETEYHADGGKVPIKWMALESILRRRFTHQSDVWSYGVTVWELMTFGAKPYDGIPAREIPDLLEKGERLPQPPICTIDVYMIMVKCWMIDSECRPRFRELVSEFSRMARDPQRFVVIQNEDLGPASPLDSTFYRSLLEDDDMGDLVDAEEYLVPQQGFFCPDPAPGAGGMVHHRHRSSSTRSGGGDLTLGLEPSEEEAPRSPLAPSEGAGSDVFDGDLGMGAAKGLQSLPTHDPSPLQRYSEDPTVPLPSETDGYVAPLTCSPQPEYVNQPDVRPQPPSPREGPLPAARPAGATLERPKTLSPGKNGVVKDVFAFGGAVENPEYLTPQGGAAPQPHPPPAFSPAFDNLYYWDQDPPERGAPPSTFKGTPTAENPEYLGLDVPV

Regarding `COc1c(C(C)C)cc(/C=C2/C(=O)Nc3ccc(Cl)cc32)cc1C(C)C` [Example 2, 5-Chloro-3-(3,5-diisopropyl-4-methoxybenzylidene)-1,3-dihydroindol-2-one], the pIC50 in the test with SKOV3 cells is 5.32; in the test on A431 cells, 5.35; in test [1], 4.86.

For `Cc1cc(CCC(=O)O)c(/C=C2\C(=O)Nc3ccc(Br)cc32)[nH]1` [Compound 116, 3-[2-(5-Bromo-2-oxo-1,2-dihydroindol-3-ylidenemethyl)-5-methyl-1H-pyrrol-3-yl]-propionic acid], the pIC50 in test [1] is 5.22.

With `COc1c(C(C)C)cc(/C=C2/C(=O)Nc3ccccc32)cc1C(C)C` [Example 1, 3-(3,5-Diisopropyl-4-methoxybenzylidene)-1,3-dihydroindol-2-one], the pIC50 with SKOV3 cells was 5.26; in the test on A431 cells, 5.27; in test [1] it was 4.86.

On to `CCOC(=O)c1c(C)[nH]c(/C=C2\C(=O)Nc3ccc(Br)cc32)c1CCC(=O)O` [Compound 114, 5-(5-Bromo-2-oxo-1,2-dihydroindol-3-ylidenemethyl)-4-(2-carboxyethyl)-2-methyl-1H-pyrrole-3-carboxylic acid ethyl ester], for which the pIC50 in test [1] was 4.21.
